From US20220251085A1, “CYSTEINE BINDING COMPOSITIONS AND METHODS OF USE THEREOF” (University of Virginia Patent Foundation, priority 2019, published 2022)
Each block holds one molecule with its values, some of them ahead of it.

Assays:
[1] = HPLC assay for profiling solution reactivity and stability of purine fragments (probes) with amino acid mimetics; format: physicochemical; conditions: for effect of amine group at the 2 position on electrophilic character / adducts formed, based on HPLC traces / reaction kinetics compared to N9 counterparts: butanethiol; for effect of position of the halogen leaving group on reactivity: 6 position versus 2 position (Pu-3 versus Pu-5, Pu-4 versus Pu-6); for reaction kinetics compared to N9 counterparts: versus Pu-2, Pu-4, Pu-10; for reaction with butanethiol: cysteine mimetic, on ice 6 h
Description: HPLC assay for profiling solution reactivity and stability of purine fragments: The following reagents were prepared and stored on ice prior to use. 0.1 molar (M) solution of caffeine in acetonitrile, 1.0 M solution of amino acid mimetic (butanethiol—cysteine mimetic; n-butylamine—lysine mimetic; p-cresol—tyrosine mimetic; propionamide-asparagine/glutamine mimetic; butyric acid—aspartic/glutamic acid mimetic), tetramethylguanidine (TMG), 1 M acetic acid (HOAc) in acetonitrile (ACN) and 10 mM solution of purine fragment in ACN mixture. 500 μL of fragment solution were transferred to a dram vial on ice. To the mixture, 5.5 μL of TMG and 5.5 μL of respective amino acid mimetic were added and solutions were stirred on ice for 6 h. To monitor reactivity, 50 μL aliquots were removed at indicated time points and quenched with 10 μL of a 1:1 mixture of caffeine and HOAc. Samples were injected (1 μL) and analyzed by reverse-phase HPLC on a Shimadzu 1100 Series spectrometer (Shimadzu Corporation, Kyoto, Japan) with UV detection at 254 nm. Reaction progress was evaluated by monitoring consumption of starting material (purine fragment) normalized to caffeine standard. Chromatographic separation was performed using a Phenomenex Kinetex C18 column (2.6 μm, 50×4.6 mm; Phenomenex, Torrance, Calif., United States of America). Mobile phases A and B were composed of H2O+0.1% HOAc and ACN+0.1% HOAc, respectively. […] All purine fragment peak AUCs used for calculations were normalized to caffeine standard AUCs at respective time points to account for run-to-run variations by HPLC. The amount of purine fragment consumed (% starting material) was plotted as a function of time.
Discussion: An HPLC assay for determining the reactivity of the purine-based probes with mimetics of amino acid residues was performed. […] Reaction progress was monitored by monitoring the disappearance of starting material and appearance of product via HPLC.

DM93 cells = test: Live cell activity of purine probes, gel-based (CuAAC rhodamine-azide, in-gel fluorescence); conditions: for probe labeling compared to Pu-5 and Pu-6 / reactivity of N7 versus N9 tautomers: live DM93 cells; for probe labeling compared to Pu-5 and Pu-6: 6-chloro versus 2-chloro; for labeling profile in live cells: DM93 cells, 25 μM, 4 hours
Description: Live Cell Activity Method: DM93 cells were grown at 37° C. in 5% CO2 until 90% confluent. Once confluent cells were washed with serum free media and treated with halogenated purine probes at a final concentration of 25 μM (unless stated) for 4 hours (unless stated). Cells were then scraped and washed 3× with cold PBS and lysed in PBS+protease inhibitor. Lysates were spun at 100,000×g for 45 minutes. Halogen probe-modified proteins in soluble fractions were visualized by conjugating rhodamine-azide using copper-catalyzed azide-alkyne cycloaddition (CuAAC; 1 hour, room temperature), subjected to SDS-PAGE, and detected by in-gel fluorescence scanning. SDS-PAGE gels were also stained with Coomassie brilliant blue to determine protein load. All samples were loaded with equivalent amounts of protein. Thus, changes in purine probe labeling is not due to loading of different proteome amounts.

[2] = test system: DM93 cells lysates (soluble fractions); test: Lysate activity of purine probes, gel-based (in-gel fluorescence); format: biochemical; conditions: for labeling compared to AHL-Pu-5 and AHL-Pu-6 / reactivity of N7 versus N9 tautomers: lysates; for labeling compared to AHL-Pu-5 and AHL-Pu-6: 6-chloro versus 2-chloro; for protein labeling activity in lysates: DM93 soluble fractions, 25 μM, 2 hrs, 37° C.
Description: Lysate Activity Method: DM93 cells were grown at 37° C. in 5% CO2 until 90% confluent. Once confluent, cells were scraped and washed 3× times with cold PBS and lysed in PBS+protease inhibitor. Lysates were spun at 100,000×g for 45 minutes. Soluble fractions were treated with 25 μM of halogenated purine probes (unless stated) for 2 hrs (unless stated) at 37° C. Purine probe modified proteins were conjugated to rhodamine-azide by CuAAC, subjected to SDS-PAGE analysis, and detected by in-gel fluorescence scanning. SDS-PAGE gels were stained with Coomassie brilliant blue to determine protein load.

[3] = HPLC assay for profiling solution reactivity and stability of purine adduct fragments; format: physicochemical; conditions: for preference between nucleophiles: butanethiol versus p-cresol
Description: HPLC assay for profiling solution reactivity and stability of purine adduct fragments: The following reagents were prepared and stored on ice prior to use. 0.1 M solution of caffeine in acetonitrile, 1.0 M solution of amino acid mimetic (butanethiol, n-butylamine, p-cresol, propionamide and butyric acid), tetramethylguanidine (TMG), 1 M HOAc in ACN and 10 mM solution of purine fragment (e.g., one of the purine adducts shown in Scheme 8, above) in ACN mixture. 500 μL of fragment solution (i.e. purified Pa-1 through Pa-6) were transferred to a dram vial on ice. To the mixture, 5.5 μL of TMG and 5.5 μL of respective amino acid mimetic were added and solutions were stirred on ice for 6 h. To monitor reactivity, 50 μL aliquots were removed at indicated time points and quenched with 10 μL of a 1:1 mixture of caffeine and HOAc. Samples were injected (1 μL) and analyzed by reverse-phase HPLC on a Shimadzu 1100 Series spectrometer with UV detection at 254 nm. Reaction progress was evaluated by monitoring consumption of starting material (purine fragment) normalized to caffeine standard. Chromatographic separation was performed using a Phenomenex Kinetex C18 column (2.6 μm, 50×4.6 mm). Mobile phases A and B were composed of H2O+0.1% HOAc and ACN+0.1% HOAc, respectively. […] All purine fragment peak AUCs used for calculations were normalized to caffeine standard AUCs at respective time points to account for run-to-run variations by HPLC. The amount of purine fragment consumed (% starting material) was plotted as a function of time.

[4] = target: T1, human eEF-Sec (Uniprot ID P57772) (Homo sapiens, UniProt P57772); test: Competition assay: purine ligands block AHL-Pu-1 probe labeling of eEF-Sec; format: cell-based; conditions: for block of AHL-Pu-1 probe labeling of eEF-Sec: ligand 10 μM, AHL-Pu-1 25 μM; for block of AHL-Pu-1 probe labeling of eEF-Sec / block of AHL-Pu-1 probe labeling of eEF-Sec (FIG. 10D) / block of AHL-Pu-1 probe labeling of eEF-Sec (FIG. 10E): live cells; for block of AHL-Pu-1 probe labeling of eEF-Sec (FIG. 10D) / block of AHL-Pu-1 probe labeling of eEF-Sec (FIG. 10E): ligand 4 hr, AHL-Pu-1 25 μM 1 hr; for block of AHL-Pu-1 probe labeling of eEF-Sec (FIG. 10D): 0.5 to 25 μM; for inhibition of eEF-Sec probe labeling: 10 μM ligand; for block of AHL-Pu-1 probe labeling of eEF-Sec (FIG. 10E): 0.05 to 25 μM
T1 construct: FLAG; expressed in transfected cells; host or cells: HEK293T
T1 sequence (P57772 1-596): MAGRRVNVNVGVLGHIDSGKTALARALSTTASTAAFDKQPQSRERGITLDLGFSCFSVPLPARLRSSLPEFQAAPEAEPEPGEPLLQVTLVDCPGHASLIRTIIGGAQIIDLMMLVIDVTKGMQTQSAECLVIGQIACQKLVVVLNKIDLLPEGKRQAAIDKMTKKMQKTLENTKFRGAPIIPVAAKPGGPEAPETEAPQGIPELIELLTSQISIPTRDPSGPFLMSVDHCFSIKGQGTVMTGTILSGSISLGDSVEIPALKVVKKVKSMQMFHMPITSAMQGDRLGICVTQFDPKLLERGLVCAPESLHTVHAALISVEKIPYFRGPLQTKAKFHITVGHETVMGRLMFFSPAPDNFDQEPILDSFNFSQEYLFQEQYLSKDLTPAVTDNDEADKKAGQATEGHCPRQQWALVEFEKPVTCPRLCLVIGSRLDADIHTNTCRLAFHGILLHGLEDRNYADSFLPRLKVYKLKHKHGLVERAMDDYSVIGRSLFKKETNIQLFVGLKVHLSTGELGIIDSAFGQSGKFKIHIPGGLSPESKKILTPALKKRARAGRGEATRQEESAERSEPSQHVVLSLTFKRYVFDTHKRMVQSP
Description: FIG. 8 is a schematic diagram showing the workflow of a fluorescent gel-based competition assay using an activity-based probe (ABP) of the presently disclosed subject matter and a competitive inhibitor.
Methods: HEK293T cells were grown at 37° C. in 5% CO2 until 40% confluent. Recombinant human eEF-Sec (Uniprot ID P57772) was expressed by transient transfection for 48 hours. […] Lysates were spun at 100,000×g for 45 minutes. […] Purine probe modified proteins were conjugated to rhodamine-azide by CuAAC, subjected to SDS-PAGE analysis, and detected by in-gel fluorescence scanning. Comparison of non-transfected (Mock) and transfected proteomes was used to identify the recombinant eEF-Sec purine probe-labeled band. […] Reduction in fluorescent signals from purine probe labeling was indicative of Pi ligand inhibitory activity. Mut represents eEF-Sec mutant where cysteine residue 442 is mutated to alanine (C442A).

Compound: C#CCn1cnc2nc(N)nc(Cl)c21 [Pu-7, 6-chloro-2-amino-7-(prop-2-yn-1-yl)-7H-purine]
effect of amine group at the 2 position on electrophilic character [1]: dramatically reduces the electrophilic character

Compound: C#CCn1cnc2nc(Cl)nc(SCCCC)c21 [Pa-1, 6-(Butylthio)-2-chloro-7-(prop-2-yn-1-yl)-7H-purine]
reactivity with butanethiol or p-cresol ([3]; on ice 6 h): little reactivity

Compound: C#CCn1cnc2c(Cl)nc(N)nc21 [Pu-8, 2-Amino-6-chloro-9-(prop-2-yn-1-yl)-9H-purine]
effect of amine group at the 2 position on electrophilic character [1]: dramatically reduces the electrophilic character

Compound: C#CCn1cnc2c(Cl)nc(SCCCC)nc21 [Pa-3, 2-(butylthio)-6-chloro-9-(prop-2-yn-1-yl)-9H-purine]
preference between nucleophiles [3]: preference for butanethiol
reactivity with nucleophiles ([3]; on ice 6 h): mild reactivity

Compound: C#CCn1cnc2c(SCCCC)nc(F)nc21 [Pa-6, 6-(butylthio)-2-fluoro-9-(prop-2-yn-1-yl)-9H-purine]
preference between nucleophiles [3]: equivalent reactivity against butanethiol and p-cresol
reactivity with nucleophiles ([3]; on ice 6 h): mild reactivity

Compound: Clc1nc(Cl)c2c(ncn2Cc2ccccc2)n1 [Pi-1, 2,6-dichloro-7-benzyl-7H-purine]
block of AHL-Pu-1 probe labeling of eEF-Sec (FIG. 10E) [4]: in a concentration dependent manner
block of AHL-Pu-1 probe labeling of eEF-Sec (FIG. 10D) [4]: in a concentration dependent manner

Compound: O=[N+]([O-])c1ccc(Cn2cnc3nc(Cl)nc(Cl)c32)cc1 [Pi-5, 2,6-Dichloro-7-(4-nitrobenzyl)-7H-purine]
inhibition of eEF-Sec probe labeling [4]: greater than 50%
block of AHL-Pu-1 probe labeling of eEF-Sec [4]: block AHL-Pu-1 probe labeling (25 μM) in a time dependent and concentration dependent manner
block of AHL-Pu-1 probe labeling of eEF-Sec (FIG. 10E) [4]: in a concentration dependent manner
block of AHL-Pu-1 probe labeling of eEF-Sec (FIG. 10D) [4]: in a concentration dependent manner

Continued, in another order:

effect of position of the halogen leaving group on reactivity [1]: the 6 position enhances reactivity
Compound: C#CCn1cnc2c(Cl)ncnc21 [Pu-4, 6-Chloro-9-(prop-2-yn-1-yl)-9H-purine]
probe labeling compared to Pu-5 and Pu-6 (DM93 cells): Enhanced probe labeling
labeling compared to AHL-Pu-5 and AHL-Pu-6 [2]: Increased labeling

adducts formed, based on HPLC traces [1]: likely form many different adducts
reaction with butanethiol [1]: react with butanethiol
Compound: C#CCn1cnc2nc(F)nc(Cl)c21 [Pu-9, 6-chloro-2-fluoro-7-(prop-2-yn-1-yl)-7H-purine]
reaction kinetics compared to N9 counterparts [1]: accelerated reaction kinetics
labeling profile in live cells (DM93 cells): robust labeling profiles
reactivity of N7 versus N9 tautomers (DM93 cells): more reactive
protein labeling activity in lysates [2]: highest protein labeling activity
reactivity of N7 versus N9 tautomers [2]: more reactive

effect of position of the halogen leaving group on reactivity [1]: the 6 position enhances reactivity
reaction with butanethiol [1]: react with butanethiol
Compound: C#CCn1cnc2ncnc(Cl)c21 [Pu-3, 6-Chloro-7-(prop-2-yn-1-yl)-7H-purine]
reaction kinetics compared to N9 counterparts [1]: accelerated reaction kinetics
reactivity of N7 versus N9 tautomers (DM93 cells): more reactive
probe labeling compared to Pu-5 and Pu-6 (DM93 cells): Enhanced probe labeling
reactivity of N7 versus N9 tautomers [2]: more reactive
labeling compared to AHL-Pu-5 and AHL-Pu-6 [2]: Increased labeling

block of AHL-Pu-1 probe labeling of eEF-Sec (FIG. 10D) [4]: in a concentration dependent manner
Compound: O=S(=O)(N1CCOCC1)n1cnc2c(Cl)nc(Cl)nc21 [Pi-8, 4-((2,6-Dichloro-9H-purin-9-yl)sulfonyl)morpholine]
block of AHL-Pu-1 probe labeling of eEF-Sec [4]: block AHL-Pu-1 probe labeling (25 μM) in a time dependent and concentration dependent manner

inhibition of eEF-Sec probe labeling [4]: loses all apparent activity
Compound: O=[N+]([O-])c1ccc(Cn2cnc3c(Cl)nc(Cl)nc32)cc1 [Pi-6, 2,6-Dichloro-9-(4-nitrobenzyl)-9H-purine]

adducts formed, based on HPLC traces [1]: likely form many different adducts
reaction with butanethiol [1]: react with butanethiol
Compound: C#CCn1cnc2c(Cl)nc(F)nc21 [Pu-10, 6-chloro-2-fluoro-9-(prop-2-yn-1-yl)-9H-purine]
labeling profile in live cells (DM93 cells): robust labeling profiles
protein labeling activity in lysates [2]: highest protein labeling activity
